Assay results published in the supplement of paper PMC3974653.
Counter-ions that a name gives are not always drawn.

tested on: MTT (mouse pheochromocytoma); experiment: IC50 of cell viability (ATP content); conditions: (24 or 48 h)
Method in brief: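 Library compounds in DMSO (23 nl by pintool, 8 concentrations, final 0.5 nM to 46 µM) were applied for 24 or 48 hrs to MTT mouse pheochromocytoma cells that had been cultured overnight at 37°C, 5% CO2 in white 1536-well plates. Cell viability was measured by CellTiter-Glo ATP luminescence, read after 15 minutes, with positive-control wells set at 100% and DMSO wells at 0%. A four-parameter logistic fit of the normalised signals yielded the IC50.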

Row | Structure (SMILES) | IC50 of cell viability [µM]
1 | CCCC(=O)O[C@]1(C(=O)COC(=O)CC)CC[C@@H]2[C@@H]3CCC4=CC(=O)CC[C@]4(C)[C@H]3[C@@H](O)C[C@@]21C [HYDROCORTISONE PROBUTATE] | > 46
2 | C[C@]12CCC(=O)C=C1CC[C@@H]1[C@@H]2[C@@H](O)C[C@@]2(C)[C@H]1CC[C@]2(O)C(=O)COP(=O)([O-])[O-] [HYDROCORTISONE SODIUM PHOSPHATE] | > 46
3 | CCCCC(=O)O[C@@]1(CCC2C3CC\C4=C\C(=O)CCC4(C)C3C(O)CC12C)C(=O)CO (stereo not given in full) [HYDROCORTISONE VALERATE] | > 46
4 | C[C@]\12CCC(=O)\C=C1CC[C@H]3[C@@H]4CC[C@](O)(C(=O)CO)[C@@]4(C)C[C@H](O)[C@H]23 [HYDROCORTISONE] | > 46
5 | Br.CC(N)Cc1ccc(O)cc1 (stereo not given) [HYDROXYAMPHETAMINE HYDROBROMIDE] | > 46
6 | CCN(CCO)CCCC(C)Nc1ccnc2cc(Cl)ccc12 (stereo not given) [HYDROXYCHLOROQUINE SULFATE] | > 46
7 | CC(CC=O)CCCC(C)(C)O (stereo not given) [HYDROXYCITRONELLAL] | > 46
8 | N=C(N)c1ccc(/C=C/c2ccc(C(=N)N)cc2O)cc1 [HYDROXYSTILBAMIDINE ISETHIONATE] | > 46
9 | Nc1c2c(nc3ccccc13)CCCC2O (stereo not given) [HYDROXYTACRINE] | > 46
10 | Cc1cccc(C(=O)O)c1O [HYDROXYTOLUIC ACID] | > 46
11 | NC(=O)NO [HYDROXYUREA] | > 46
12 | CNC1CC(N)[C@H](O)[C@@H](O[C@@H]2OC(CO)C3OC4(OC(C(N)CO)C(O)C(O)C4O)O[C@@H]3[C@H]2O)C1O (stereo not given in full) [HYGROMYCIN B] | > 46
13 | O=C1N\C=N/C2=C1[NH]C=N2 [HYPOXANTHINE] | > 46
14 | CC1(C)O[C@H]2C[C@@H]3[C@H]4CC\C5=C\C(=O)CC[C@@]5(C)[C@]4(F)[C@@H](O)C[C@]3(C)[C@]2(O1)C(=O)CCl [Halcinonide] | > 46
15 | CCCCN(CCCC)CC[C@H](O)c1cc2c(Cl)cc(Cl)cc2c2cc(C(F)(F)F)ccc12 [Halofantrine hydrochloride] | > 46
16 | C[C@@H]1CC2[C@@H]3C[C@H](F)C4=CC(=O)C(Cl)=C[C@]4(C)[C@@]3(F)[C@H](O)C[C@]2(C)[C@@]1(O)C(=O)CO (stereo not given in full) [Halometasona] | > 46
17 | FC(F)(F)C(Cl)Br (stereo not given) [Halothane] | > 46
18 | Cc1c(Cl)c(=O)oc2cc(OP(=O)(OCCCl)OCCCl)ccc12 [Haloxon] | > 46
19 | C[C@H]1CC[C@]2(OC1)O[C@@H]1C[C@@H]3[C@H]4CC[C@H]5C[C@@H](O)CC[C@]5(C)[C@@H]4CC(=O)[C@@]3(C)[C@H]1[C@@H]2C [Hecogenin] | > 46
20 | COc1ccc([C@@H]2CC(=O)c3c(O)cc(O[C@@H]4O[C@@H](CO[C@@H]5O[C@@H](C)[C@@H](O)[C@@H](O)[C@H]5O)[C@@H](O)[C@@H](O)[C@H]4O)cc3O2)cc1O [Hesperidin] | > 46
21 | CCCCCCCCCCCCCCCCN [Hetaflur] | > 46
22 | CCCCCCCCCCCCCCCC(=O)OC(C)C [Hexadecanoic acid, 1-methylethyl ester] | > 46
23 | CCCCCCCCCCCCCCCC(=O)O [Hexadecanoic acid] | > 46
24 | C[N+](C)(CCCCCC[N+](C)(C)C1c2ccccc2-c2ccccc21)C1c2ccccc2-c2ccccc21 [Hexafluorenium dibromide] | > 46

Row | Structure (SMILES) | IC50 of cell viability [µM]
25 | CCCCCC(N)=O [Hexanamide] | > 46
26 | CC[C@H](c1ccc(O)cc1)[C@@H](CC)c1ccc(O)cc1 [Hexestrol] | > 46
27 | CCCC[C@H](CC)CN1CN(C[C@@H](CC)CCCC)CC(C)(N)C1 [Hexetidine] | > 46
28 | CN1C(=O)NC(=O)C(C)(C2=CCCCC2)C1=O (stereo not given) [Hexobarbital] | > 46
29 | C[N+]1(C)CCN(C[C@@](O)(c2ccccc2)C2CCCCC2)CC1 [Hexocyclium methosulfate] | > 46
30 | C[C@@H](CNC1CCCCC1)OC(=O)c1ccccc1 [Hexylcaine hydrochloride] | > 46
31 | CC(=O)[C@@]1(O)CC[C@H]2[C@@H]3CC\C4=C\C(=O)CC[C@]4(C)[C@H]3CC[C@]12C [Hidroxiprogesterona] | > 46
32 | CC1CC(OC(=O)c2ccccc2O)CC(C)(C)C1 (stereo not given) [Homosalate] | > 46
33 | NNc1nncc2ccccc12 [Hydralazine hydrochloride] | > 46
34 | C[C@]\12CCC(=O)\C=C1CC[C@H]3[C@@H]4CC[C@](O)(C(=O)COC(=O)CCC(O)=O)[C@@]4(C)C[C@H](O)[C@H]23 [Hydrocortisone 21-hemisuccinate sodium salt] | > 46
35 | CC(=O)OCC(=O)C1(O)CCC2C3CCC/4=C/C(=O)CCC4(C)C3C(O)CC12C (stereo not given) [Hydrocortisone acetate] | > 46
36 | COc1c2c(cc3c1OCO3)CCN(C)C2 [Hydrocotarnine hydrobromide] | > 46
37 | N[S+](=O)([O-])c1cc2c(cc1C(F)(F)F)NCN[S+]2(=O)[O-] [Hydroflumethiazide] | > 46
38 | Oc1ccc(O)cc1 [Hydroquinone] | > 46
39 | O.O.O=S([O-])CO.[Na+] [Hydroxymethanesulfinic acid monosodium salt dihydrate] | > 46
40 | CN[C@H]1C[C@@H](N)[C@H](O)[C@@H](O[C@@H]2O[C@H](CO)[C@H](O)[C@@H]3O[C@]4(O[C@@H]23)O[C@H]([C@@H](N)CO)[C@H](O)[C@@H](O)[C@H]4O)[C@@H]1O [Hygromycin B] | > 46
41 | C\C1=C\C(=O)OC2=C1C=CC(=C2)O [Hymecromone] | > 46
42 | CCCCCN(C)CC[C@@](O)(P(=O)([O-])O)P(=O)(O)O [IBANDRONATE SODIUM] | > 46
43 | CC(=O)[C@]1(O)Cc2c(O)c3c(c(O)c2[C@@H](O[C@H]2C[C@H](N)[C@H](O)[C@H](C)O2)C1)C(=O)c1ccccc1C3=O [IDARUBICIN HYDROCHLORIDE] | > 46
44 | C1C\N=C(/N1)C2COC3=C(O2)C=CC=C3 (stereo not given) [IDAZOXAN] | > 46
45 | CC(C(O)c1ccc(O)cc1)N1CCC(Cc2ccccc2)CC1 (stereo not given) [IFENPRODIL] | > 46
46 | CNC(=O)[C@H](Cc1c[nH]c2ccccc12)NC(=O)[C@@H](CC(=O)NO)CC(C)C [ILOMASTATUM] | > 46
47 | Cc1ccc(NC(=O)c2ccc(CN3CCN(C)CC3)cc2)cc1Nc1nccc(-c2cccnc2)n1 [IMATINIB MESYLATE] | > 46
48 | NC1=NC(=O)N2CC12 (stereo not given) [IMEXON] | > 46

Row | Structure (SMILES) | IC50 of cell viability [µM]
49 | CCOC(=O)[C@H](CCc1ccccc1)N[C@@H](C)C(=O)N1C(=O)N(C)C[C@H]1C(=O)O [IMIDAPRIL HYDROCHLORIDE] | > 46
50 | CCn1ccnc1CC1COc2ccccc2O1 (stereo not given) [IMILOXAN] | > 46
51 | CN(C)CCCN1c2ccccc2CCc2ccccc21 [IMIPRAMINE] | > 46
52 | CC(C)=CCOC1=C2OC(=O)\C=C/C2=CC3=C1OC=C3 [IMPERATORIN] | > 46
53 | CC1Cc2ccccc2N1NC(=O)c1ccc(Cl)c([S+](N)(=O)[O-])c1 (stereo not given) [INDAPAMIDE] | > 46
54 | O=C1/C(=C2\Nc3ccccc3C2=O)Nc2ccccc21 [INDIGO] | > 46
55 | CC(C)(C)NC(=O)[C@@H]1CN(Cc2cccnc2)CCN1C[C@@H](O)C[C@@H](Cc1ccccc1)C(=O)N[C@H]1c2ccccc2C[C@H]1O [INDINAVIR SULFATE] | > 46
56 | CC1(C)C(/C=C/C=C/C=C/C=C2\N(CCCCS(=O)(=O)[O-])c3ccc4ccccc4c3C2(C)C)=[N+](CCCCS(=O)(=O)[O-])c2ccc3ccccc3c21 [INDOCYANINE GREEN] | > 46
57 | c1ccc2[nH]ccc2c1 [INDOLUM] | > 46
58 | CC(C(=O)O)c1ccc(N2Cc3ccccc3C2=O)cc1 (stereo not given) [INDOPROFEN] | > 46
59 | O=C(NC1CCN(CCc2c[nH]c3ccccc23)CC1)c1ccccc1 [INDORAMIN HYDROCHLORIDE] | > 46
60 | OC1C(O)C(O)C(O)C(O)C1O (stereo not given) [INOSITOL] | > 46
61 | OC[C@@H]1O[C@](CO)(O[C@H]2O[C@H](CO)[C@@H](O)[C@H](O)[C@H]2O)[C@H](O)[C@H]1O [INULIN (HYDROXYMETHYL, C-14)] | > 46
62 | Cc1c(I)c(=O)n(-c2ccccc2)n1C [IODOANTIPYRINE] | > 46
63 | O=C(O)CNC(=O)c1ccccc1I [IODOHIPPURATE SODIUM, I-123] | > 46
64 | [O-]C(=O)C1=CC=CC=C1C(C2=CC(=C([O-])C(=C2)I)I)=C\3/C=C(I)\C(=O)\C(=C3)I [IODOPHTHALEINUM NATRICUM] | > 46
65 | CCOC(=O)c1ncn2c1CN(C)C(=O)c1c(I)cccc1-2 [IOMAZENIL] | > 46
66 | Cl.Nc1c2c(nc3c1CCC3)CCCC2.O [IPIDACRINE HYDROCHLORIDE HYDRATE] | > 46
67 | CN(C)/C=N/c1c(I)cc(I)c(CCC(=O)O)c1I [IPODATE CALCIUM] | > 46
68 | CC(C)CCCC(C)NC(C)C (stereo not given) [IPROHEPTINE HYDROCHLORIDE] | > 46
69 | CC(C)NNC(=O)c1ccncc1.O=[S+]([O-])(O)O [IPRONIAZID SULFATE] | > 46
70 | CC(C)c1ncc([N+](=O)[O-])n1C [IPRONIDAZOLE] | > 46
